Consider 1 compound from patent US12351574B2, “Selective ligands for modulation of GIRK channels” (Northeastern University, priority 2018, dated 2025).

The target in one series is T1, GIRK1/4(T-V) (Homo sapiens, UniProt P48544+P48549, T94V).
T1 construct: expressed in transfected cells; host or cells: Xenopus laevis oocytes (cRNA injection)
T1 sequence (P48549 1-501): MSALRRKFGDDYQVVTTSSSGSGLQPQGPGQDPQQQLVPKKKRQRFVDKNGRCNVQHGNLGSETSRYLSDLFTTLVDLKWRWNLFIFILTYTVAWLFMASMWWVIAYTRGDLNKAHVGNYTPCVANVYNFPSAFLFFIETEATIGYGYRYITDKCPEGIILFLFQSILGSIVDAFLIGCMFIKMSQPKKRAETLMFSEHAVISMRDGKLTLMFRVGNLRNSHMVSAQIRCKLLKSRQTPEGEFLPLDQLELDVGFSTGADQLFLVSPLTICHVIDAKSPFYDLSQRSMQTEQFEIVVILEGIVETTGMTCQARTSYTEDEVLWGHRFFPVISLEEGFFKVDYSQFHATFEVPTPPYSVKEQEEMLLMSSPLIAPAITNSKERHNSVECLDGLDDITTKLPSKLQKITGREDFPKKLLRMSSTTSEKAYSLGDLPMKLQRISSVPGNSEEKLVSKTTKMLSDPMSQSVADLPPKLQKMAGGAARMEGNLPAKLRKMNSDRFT
T1 sequence (P48544 1-419 T94V): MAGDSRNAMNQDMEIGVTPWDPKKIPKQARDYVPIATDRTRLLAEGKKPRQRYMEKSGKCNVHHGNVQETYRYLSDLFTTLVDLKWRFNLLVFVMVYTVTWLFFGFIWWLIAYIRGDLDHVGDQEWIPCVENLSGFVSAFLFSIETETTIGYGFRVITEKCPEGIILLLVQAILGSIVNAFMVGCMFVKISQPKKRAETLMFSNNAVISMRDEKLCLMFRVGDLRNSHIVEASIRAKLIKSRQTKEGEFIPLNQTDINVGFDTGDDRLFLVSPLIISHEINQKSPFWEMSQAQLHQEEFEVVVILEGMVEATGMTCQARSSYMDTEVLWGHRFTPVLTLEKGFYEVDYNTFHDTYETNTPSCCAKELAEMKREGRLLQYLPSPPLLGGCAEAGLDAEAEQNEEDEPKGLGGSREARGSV
As to the kind of experiment: TEVC in Xenopus oocytes, single mutant GIRK1/4(T-V). Format: cell-based. The conditions noted are these: GIRK1/4(T-V) single mutant. From the text:
Molecular biology: For Xenopus oocyte expression, human GIRK1 and human GIRK4 cDNAs were subcloned into pGEMHE. For mammalian expression, human GIRK1 and human GIRK4 cDNAs were subcloned into pcDNA3 and pcDNA3.1/V5-His B, respectively (Invitrogen). Mouse GIRK2 cDNA was subcloned in the dual-function vector, pXoom. Point mutations were introduced using a standard Pfu-based mutagenesis technique according to the QuikChange protocol (Agilent). Mutations were verified by sequencing.
Electrophysiology of oocytes: Whole-oocyte currents were measured by conventional two-electrode voltage clamp (TEVC) with a GeneClamp 500 amplifier (Axon Instruments). Agarose cushion microelectrodes were filled with 1.5% (w/v) agarose in 3 M KCl and were used with resistances between 0.1 and 1.5 megaohms. […] Barium-sensitive basal currents from both groups, 1) Vehicle, 2) single concentration at 10 μM and 3) multiple concentrations of ML297 or GAT compounds in the presence of HK solution, were assessed at −80 mV using TEVC. Barium-sensitive currents were normalized to average basal current in the vehicle solutions. The HK solution contained the following: 96 mM KCl, 1 mM NaCl, 1 mM MgCl2, 5 mM KOH/HEPES, pH 7.4. The barium solution consisted of HK+10 mM BaCl2. Five to ten oocytes from the same batch (same frog) were recorded for each group, and the experiments were repeated in at least four batches. Data acquisition and analysis were carried out using pClamp9 (Molecular Devices) and OriginPro (Microcal) software.
To test these computational predictions, the inventors mutated each or both of the two M1 key wild-type GIRK4 subunit residues to the corresponding GIRK2 residues (GIRK4-V92I, GIRK4-T94V, GIRK4-V92I/T94V or GIRK4-dm) and vice-versa the GIRK2 residues to the corresponding GIRK4 ones (GIRK2-I97V, GIRK2-V99T, GIRK2-I97V/V99T or GIRK2-dm) (FIG. 35). […]

The nature of another series: elevated plus maze (EPM). Format: in vivo, rat. Particulars: 30 mg/kg; vehicle group 30.6±4.4; trend. As to the method:
Elevated plus maze (EPM): The EPM, as described previously was performed in a black Plexiglas apparatus (Hamilton Kinder, San Diego, CA) that consists of two open arms and two closed arms each 50.17 cm long and 10.8 cm wide. The closed arms have walls that are 40.01 cm high. The entire apparatus is elevated 100 cm above the ground on a square aluminum base. For a testing period of 5 min, anxiety is estimated by the amount of time rats spend in the closed versus open arms. Test sessions were video recorded by ceiling mounted cameras.

On to `Cc1cc(NC(=O)Nc2ccc(Br)s2)n(-c2ccccc2)n1` [GAT1508, 1-(5-bromothiophen-2-yl)-3-(3-methyl-1-phenyl-1H-pyrazol-5-yl)urea], for which, at GIRK1/4(T-V), the EC50 was determined as 500 ± 470 nM and the EMAX is 1.12±0.03. Also, the Emax on GIRK1/4(T-V) (read-out: EMAX, % of the control GIRK1/2) was 7%. Also, the “time spent on the open arm” value in the series “elevated plus maze (EPM)” was determined as 48.7 ± 8.3 s.

As a reminder, the EC50 is the concentration needed to bring the measured effect to its halfway point. Read a high EC50 as weaker potency.
